Source: patent US11883430B2, “CD38-NAD+ regulated metabolic axis in anti-tumor immunotherapy” (MUSC FOUNDATION FOR RESEARCH DEVELOPMENT, priority 2016, dated 2024)

Experiments:
Foxo1 = test: Confocal imaging of Foxo1 localization in Th17 and Th1/17 cells; format: cell-based, mouse; conditions: Th17 and Th1/17 cells programmed with SC-79 0.5 μg/ml (FIG. 13H)
B16-F10 melanoma = test: Adoptive T cell transfer, s.c. B16-F10 melanoma in C57BL/6 mice, tumor growth; format: in vivo, mouse; conditions: TRP-1 Th1/17 differentiated with DON 3 μM vs DMSO, 0.5×10^6 cells (FIG. 3P)
Method: Adoptive T cell protocol: B16-F10 or B16-F10-A2^+ mouse melanoma tumor cells (2.5×10^6) were injected subcutaneously (s.c.) into left flank of 8-10 weeks old C57BL/6 or HLA-A2^+ (or HLA-A2^+-RAG^−/−) mice respectively. After 9 days of tumor establishment, recipient mice were injected (i.p) with cyclophosphamide (4 mg/mice) before adoptively transferring (i.v) either h3T (CD4^+Vβ12^+) or TRP-1 (CD4^+Vβ14^+) Th1, Th17, Th1/17 cells on day 10. Similarly, Pmel (CD8^+Vβ13^+) and TCR-I (CD8^+Sv40 antigen specific) Tc1, Tc17 and Tc1/17 cells were adoptively transferred (i.v) into either 9 days established B16-F10 tumor bearing mice or TRAMP (spontaneously develop prostate tumor) respectively. For in vivo neutralization of IFNγ and IL17, neutralizing antibody to IFNγ and IL17 or matched isotype antibody was injected (100 μg/mouse; i.p.) in tumor bearing mice following adoptive transfer of T cells. In some experiments, tumor bearing mice received anti-CD38 antibody (50 μg/mouse; i.p.) after adoptive TRP-1 Th0 cells transfer. Recipient mice were given IL2 (50,000 U/mouse; i.p) for 3 consecutive days after ACT.

Th1/17 cells [1] = test: Viable cells by FACS live/dead dye staining; format: cell-based, mouse; conditions: cultured in presence of DON 3 μM; compared to Th1 or Th17 cell (FIG. 11H)
Method: FIGS. 11A-11L: Metabolic commitment of Th1, Th17 and Th1/17 cells (see FIGS. 3-4). (A-C) In vitro differentiated murine Th1, Th17 and Th1/17 cells were used for determining: (A) intracellular expression of various glycolytic enzymes, (B) cell surface expression of different amino acid transporters, and (C) intracellular expression of glutaminolytic enzymes by flow cytometry. Data are representative of three independent experiments with similar results. (D) Western blot analysis determined the protein level of various glutamine transporters and glutaminolytic enzymes in in vitro differentiated Th1, Th17 and Th1/17 cells. β-actin was used as a loading control. Data are representative of two independent experiments with similar results. (E-F) Purified CD4^+ T cells were differentiated to Th1, Th17 and Th1/17 cells either in presence or absence of 2DG (1 mM) or DON (3 μM) and characterized for: (E) intracellular cytokine secretion after restimulating them with PMA and ionomycin for 4 hr, (F) determining the frequency of cells that were IFNγ^+, IL17^+ or IFNγ^+IL17^+ in each treatment groups and presented using scatter plot. Statistical comparison between treated and untreated groups are indicated. […] (I) Purified CD4^+ T cells were differentiated into Th1, Th17 and Th1/17 cells and intracellular metabolites were measured using mass spectrometry. […]

Th1/17 cells [2] = test: Intracellular cytokine (IFNγ, IL17) flow cytometry after PMA and ionomycin; format: cell-based, mouse
Text: T cell differentiation: Naïve CD4^+ T cells were purified from the total splenocytes of 6-9 weeks old WT (C57BL/6) and KO (Foxo1^fl/flLck^cre, Sirt1^fl/flCD4^cre, CD38KO) mice using CD4^+ T cell isolation kit (Miltenyi Biotec) according to manufacturer's protocol. Total splenocytes from 6-9 weeks old TCR transgenic mouse TRP-1 (bears class-II restricted CD4^+ T cells) or Pmel (bears class-I restricted CD8^+ T cells) or TCR-I (bears class-I restricted CD8^+ T cells) were also used. Within experiments mice were age and sex matched. Purified naïve CD4^+ T cells or total splenocytes were differentiated to Th1 or Tc1 (10 ng/ml IL12, 50 U/ml IL2 and 10 μg/ml anti-IL4), Th17 or Tc17 (3 ng/ml TGFβ, 25 ng/ml IL6, 10 μg/ml anti-IL4 and 10 μg/ml anti-IFNγ), Th1/17 or Tc1/17 (20 ng/ml IL1β, 25 ng/ml IL6, 10 ng/ml IL12, 20 ng/ml IL23, 400 pg/ml TGFβ, 10 μg/ml anti-IL4, 5 μg/ml anti-IFNγ), iTreg (5 ng/ml TGFβ, 100 IU/ml IL2, 10 μg/ml anti-IL4 and 10 μg/ml anti-IFNγ or Th0 (50 IU/ml IL2) in presence of plate bound anti-CD3 (5 μg/ml) and anti-CD28 (5 μg/ml). For TRP-1, gp100 or Sv40 specific generation of different Th or Tc subsets, total splenocytes from either TRP-1, Pmel or TCR-I TCR transgenic mice were stimulated with 1 μg/ml respective peptides in presence of above-mentioned polarizing conditions. T cells were differentiated for three days in IMDM media supplemented with 10% FCS, 4 mM L-glutamine, 100 U/ml penicillin, 100 μg/ml streptomycin, 55 μM beta-mercaptoethanol under 7% CO2, atmospheric oxygen at 37° C. in a humidified incubator. For evaluation of intracellular cytokines by flow cytometry, T cells were re-stimulated with PMA (500 ng/ml) and Ionomycin (500 ng/ml) for 4 hr in presence of Glogi inhibitors. […]
Flow cytometry: Staining for cell surface markers was performed by incubating cells with antibody at 1:200 dilutions in FACS buffer (0.1% BSA in PBS) for 30 min at 4° C. […] Samples were acquired on LSRFortessa and analysed with FlowJo software (Tree Star, OR).

NAD+ = test: Intracellular NAD+ level; format: cell-based, mouse; conditions: Th1/17 differentiated with 2DG 1 mM, DON 3 μM or FK866 10 nM (FIGS. 11K, 11L)
Method: NAD^+, Sirt1 activity and Foxo1 activity assay: Intracellular NAD^+ level in T cells were measured spectrophotometrically following the manufacturer's protocol (Cayman chemical, Ann Arbor, MI). Using equal amounts of nuclear protein extracted by NE-PER Nuclear and Cytoplasmic Extraction Reagents (Thermo Fisher Scientific, Waltham, MA), Sirt1 activity (Universal Sirt1 Activity Assay Kit, Abcam, Cambridge, MA) and Foxo1 activity (FKHR transcription Factor Assay Kit, Active Motif, Carlsbad, CA) were determined as per manufacturer's protocol.

Th1/17 cells [3] = test: Glutamine uptake assay (radiolabelled glutamine); format: cell-based, mouse; conditions: DON pre-treatment, different conc. (FIG. 3O)
Method: Glutamine uptake assay: Ex vivo programmed Th cell subsets (1×10^6 cells) were starved in glutamine free RPMI-1640 media (Thermo Fisher Scientific, Cat #21870-076) for 15 min before incubated with L-2,3,4-[^3H] glutamine (0.5 mCi, PerkinElmer) for 10 min at room temperature. Cells were lysed in 500 μl of lysis buffer (Sigma-Aldrich, St. Louis, MO) and radioactivity was measured by liquid scintillation.

[4] = system: B16-F10-HLA-A2+ murine melanoma; test: Adoptive T cell transfer, s.c. B16-F10-HLA-A2+ melanoma, tumor growth; format: in vivo, mouse; conditions: Th1/17 differentiated ex vivo with FK866 or Ex527 vs untreated/vehicle (FIGS. 4E, 5F)
Th1/17 cells [5] = test: qPCR gene expression in Th1/17 cells; format: cell-based, mouse; conditions: Th1/17 differentiated with FK866 10 nM or Ex527 (FIGS. 4D, 5D)
Method: Real-time quantitative-PCR: Total RNA was extracted from pellets of the indicated T cell subsets (2×10^6 cells) using Trizol reagent (Life technologies, Grand Island, NY). cDNA was generated from 1 μg total RNA using iScript cDNA Synthesis Kit (BioRad, Hercules, CA). SYBR Green incorporation quantitative real-time PCR was performed using a SYBR Green mix (Biorad, Hercules, CA) in the CFX96 Detection System (BioRad, Hercules, CA). Expression of different genes was quantified relative to Actb.

Th1/17 cells [6] = test: Global acetylation of nuclear protein, western blot; format: cell-based, mouse; conditions: Nampt inhibitor FK866 treatment (FIG. 6A, FIG. 13A)
Method: Immunoblotting and Immunoprecipitation of Foxo1: For evaluation of global protein acetylation, cells were lysed using NE-PER Nuclear and Cytoplasmic Extraction Reagents (Thermo Fisher Scientific, Waltham, MA) and nuclear fraction was isolated according to the manufacturer's protocol. Equal amounts of nuclear protein (20 μg) were separated by 4%-12% SDS-PAGE and then transferred to nitrocellulose membranes. The membranes were probed with anti-Acetyl-Lysine antibody (Cell Signaling Technologies, Danvers, MA) followed by incubation with secondary antibody (HRP-conjugated goat anti-rabbit IgG at 1:3000 dilutions) for overnight at 4° C. Pre-stained molecular weight and magic markers were run in parallel to identify the molecular weight of proteins. For chemiluminescent detection, the membranes were treated with enhanced chemiluminescent reagent, and the signal was monitored using a Biorad Versadoc imaging system (Biorad, Hercules, CA). Same membrane was stripped with stripping buffer (Bioland Scientific, Paramount, CA) according to manufacturer's protocol and re-probed with antibody specific to histone H3 (Cell Signaling Technologies, Danvers, MA) as reference control.

Th1 cells = test: Intracellular cytokine (IFNγ, IL17) flow cytometry after PMA and ionomycin; format: cell-based, mouse; conditions: Th1 subsets (FIGS. 12A and 12B)
Method: FIGS. 12A-12D: Loss of Sirt1 expression and NAD+ levels on Th1/17 cell phenotype and function (see FIG. 5). (A) Purified CD4^+ T cells from C57BL/6 were used to differentiate to Th1/17 cells either alone or in the presence of Ex527, a pharmacological inhibitor of Sirt1. Cells were then restimulated with PMA and ionomycin for 4 hr in presence of golgi block to stain for intracellular accumulation of cytokines IFNγ and IL17. (B) Th1 cells were cultured either in presence or absence of NAD+ inhibitor FK866 (10 nM) and intracellular staining was performed for IFNγ and IL17. Data was acquired using FACS and analysis was carried out using FlowJo software. (C-D) Purified splenic CD4^+ T cells from either C57BL/6 WT or Sirt1fl/flCD4Cre (Sirt1KO) mouse were used to ex vivo program for Th1/17 cells. RNA was prepared and quantitative PCR analysis was performed for the expression of various glycolysis (C) and glutaminolysis (D) associated genes in either WT or Sirt1KO Th1/17 cells. Data in section A-D are representative of three independent experiments.
T cell differentiation: Naïve CD4^+ T cells were purified from the total splenocytes of 6-9 weeks old WT (C57BL/6) and KO (Foxo1^fl/flLck^cre, Sirt1^fl/flCD4^cre, CD38KO) mice using CD4^+ T cell isolation kit (Miltenyi Biotec) according to manufacturer's protocol. […]

SMILES | nuclear Foxo1 levels (Foxo1) | anti-tumor response of DON pre-treated Th1/17 cells upon ACT (B16-F10 melanoma) | viability of Th1/17 cells (Th1/17 cells [1]) | IFNγ+IL-17+ secreting fraction (Th1/17 cells [2]; DON 3 μM in differentiation media from day 0 (FIGS. 11E, 11F)) | NAD+ levels in Th1/17 cells (NAD+) | uptake of radio labelled glutamine (Th1/17 cells [3]) | tumor control by inhibitor-treated Th1/17 cells upon adoptive transfer [4] | expression of stemness-associated genes (Th1/17 cells [5]) | frequency of IL17+IFNγ+ population (Th1/17 cells [2]; FK866 10 nM in differentiation media from day 0 (FIG. 4C)) | reduced global acetylation of Th1/17 cells (Th1/17 cells [6]) | IFNγ secreting fraction (Th1 cells)
CCOC(=O)C1=C(N)Oc2ccc(Cl)cc2C1C(C#N)C(=O)OCC (stereo not drawn) [SC-79] | reduced nuclear Foxo1 levels |  |  |  |  |  |  |  |  |  | 
[N-]=[N+]=CC(=O)CC[C@H](N)C(=O)O [DON, 6-Diazo-5-oxo-L-norleucine] |  | significant attenuation of the anti-tumor response upon ACT | reduced by two-folds | reduction in IFNγ^+IL-17^+ secreting fraction | significantly reduced NAD^+ levels | reduced the uptake of radio labelled glutamine in a dose dependent manner |  |  |  |  | 
O=C(/C=C/c1cccnc1)NCCCCC1CCN(C(=O)c2ccccc2)CC1 [FK866] |  |  |  |  | depletion of NAD^+ |  | failed to exhibit potent tumor control upon adoptive transfer | reduced expression of stemness-associated molecules such as Tcf7, Bcl6, and β-catenin | two-fold decrease in the frequency of IL17^+IFNγ^+ population | reversed to a certain extent | No significant difference
